Test results reported in patent US20210196724A1, “BIARYL COMPOSITIONS AND METHODS FOR MODULATING A KINASE CASCADE” (Athenex, Inc., priority 2016, published 2021).
Values joined by “and” are separate entries in the source; they are usually repeats but may differ in a detail not shown here. Equal entries are not always repeated. Where two headings read alike, the source gives them in different places.

Experiments:
GL261 cells = experiment: MTT cell growth inhibition (GI50), GL261; format: cell-based, murine; conditions: 3 days
Protocol: (§1) The drug concentration required to block net cell growth by 50% relative to a control sample is measured as the GI50. The GI50s for several of the compounds of the application were assayed as described.
(§2) MTT assay: U87 and GL261 cells were seeded in 96-well plate (6×10^3 cells in 100 μl of DMEM+10% FBS media per well) and incubated overnight at 37° C. with 5% CO2. All test compounds were diluted (10 point 2-fold serial dilution) in a separate 96-well plate to yield 10× of final concentrations (0.5-256 nM). A volume of 11 μl of 10× dilutions was added to appropriate wells (n=3). To value (reflecting the starting number of cells upon drug treatment) was determined by following steps as described below. After 3 days incubation at 37° C. with 5% CO2, 10 μl of MTT solution (5 mg/ml in PBS) was added to each well and plates were incubated at 37° C. for 3 h to allow MTT to form formazan crystals by reacting with metabolically active cells. 100 μl of 20% SDS was added to each well and plates were incubated overnight at 37° C. with 5% CO2. Afterward, OD570 was measured using microplate reader. The cell growth percentage of control was calculated according to percentage of control=(T−T0)/(C−T0)×100% or OD value of the test well exposure to test drug—OD value at time zero/(OD of the control well without drug treatment−OD value at time zero)×100%. Growth inhibition curves and GI50 were determined using GraphPad Prism 5 software.

U87 cells = experiment: MTT cell growth inhibition (GI50), U87; format: cell-based, human; conditions: 3 days
Protocol: as §1, §2

Jurkat = experiment: Cell growth inhibition (GI50), Jurkat; format: cell-based
Protocol: as §1

HT-29 = experiment: Cell growth inhibition (GI50), HT-29; format: cell-based
Protocol: as §1

GI50 (U87 cells): 4 nM | GI50 (Jurkat): 2.5 nM | GI50 (Jurkat; Homo sapiens): 2.3 nM | GI50 (HT-29; HT-29): 2.5 nM | GI50 (HT-29; Homo sapiens, HT-29, HT-29): 3.1 nM
SMILES: Cc1cc(N2CCOC[C@@H]2C)ccc1-c1ccc(CC(=O)NCc2ccccc2)nc1 (stereo in doubt) [Compound 104]
GI50 (GL261 cells): 10 nM and 5.3 nM
